Entries after “also recorded” stand apart in the source; their conditions may differ.

Series [1] relates to IFN-γ production in allogeneic PBMC co-culture (MLR). Briefly: IFN-γ production by allogeneic T cell activation in the mixed leukocyte response (MLR), ELISA. It counts as cell-based. The following applies: 120 h, 5 days, read-out: INF-γ IC50. As for the experimental part: Immature dendritic cells. (DC) were prepared as described in Romani, N. et al. (Romani, N. et al. (1996) J. Immunol. Meth. 196:137). IFN-γ production by allogeneic T cell activation in the mixed leukocyte response (MLR) was determined as described in Penna, G., et al., J Immunol., 164: 2405-2411 (2000).
Briefly, peripheral blood mononuclear cells (PBMC) were separated from buffy coats by Ficoll gradient and the same number (3×10^5) of allogeneic PBMC from 2 different donors were co-cultured in 96-well flat-bottom plates. The vitamin D3 compounds were added to each of the cultures.

The nature of series [2]: Determination of maximum tolerated dose (MTD), serum calcium / hypercalcemia. The following applies: female, C57BL/6, mouse, serum, po. Here is the method:
(§1) The maximum tolerated dose of the vitamin D3 compounds of the invention were determined in eight week-old female C57BL/6 mice (3 mice/group) dosed orally (0.1 ml/mouse) with various concentrations of Vitamin D3 analogs daily for four days. Analogs were formulated in miglyol for a final concentration of 0.01, 0.03, 0.1 0.3, 1, 3, 10, 30, 100 and 300 μg/kg when given at 0.1 ml/mouse p.o. daily. Blood for serum calcium assay was drawn by tail bleed on day five, the final day of the study.

The subject of series [3] is female C57BL/6 mice. The series is described as above. The following applies: for MTD (mice): oral daily for four days, highest dose without hypercalcemia (serum calcium>10.7 mg/dl); for MTD compared with the corresponding parent dihydroxy compound: (2) vs (1), (4) and (5) vs (3). Here is the method: as §1
Series [4] relates to primed lymph node cells (LN). Briefly: In vitro assay of primed lymph node cells (LN) from EAU mice: proliferation, polarization, cytokine and chemokine release. It counts as cell-based. As to conditions: for Inhibition of specific T cell proliferation and T cell polarization: primed lymph node cells, FIG. 4. An excerpt: It can be concluded that delayed hypersensitivity to IRBP in treated mice is correlated with disease severity. […] Preventive treatment remarkably diminished both IFN-gamma and IL-17 production by LN.
In consistency with disease amelioration, Ag driven chemokine release, such as MIP-1a, Rantes and TARC, is inhibited by Vitamin D3 derivatives as shown in FIG. 5. The further mechanism(s) involved in inhibition of EAU by VDR agonists are being investigated.

Series [5] deals with EAU-susceptible B10.RIII mice. Briefly: Experimental autoimmune uveoretinitis (EAU) induced with IRBP in CFA. The following applies: for Prevention of EAU: administered from day −6 to 2. It counts as in vivo. The source says: EAU an autoimmune disease mediated by Th1-type uveitogenic CD4+ T cells serves as a model for human posterior uveitis. […] EAU development was followed by funduscopy and confirmed by histopathology on eyes collected 21 days after immunization.

With `C=C1/C(=C\C=C2/CCC[C@]3(C)C(C(C)CCCC(C)(C)O)=CCC23)CC(OC(C)=O)C[C@@H]1OC(C)=O` (stereo partly drawn) [(11), 1,3-Di-O-acetyl-1,25-dihydroxy-16-ene-cholecalciferol], in series [1], the IC50 – broadly, the concentration at which inhibition is half-maximal – turned out to be 0.036 nM. The MTD (commonly the highest dose tested that stayed within the study's limit of toxicity) at 4 days in series [2] was 1 µg/kg.

On to `CC(=O)OC1C/C(=C/C=C2\CCC[C@@]3(C)C2CCC3C2(CC#CC(O)(C(F)(F)F)C(F)(F)F)CC2)C[C@@H](OC(C)=O)C1` (stereo partly drawn) [(27), 1,3-Di-O-acetyl-1,25-dihydroxy-20-cyclopropyl-23-yne-26,27-hexafluoro-19-nor-cholecalciferol], for which the “MTD (mice)” value in series [3] was 10 µg/kg.

In the case of `CC(=O)OC1C/C(=C/C=C2\CCC[C@]3(C)C(C(C)CC#CC(O)(C(F)(F)F)C(F)(F)F)=CCC23)C[C@@H](OC(C)=O)C1` (stereo partly drawn) [(4), 1,3-Di-O-acetyl-1,25-Dihydroxy-16-ene-23-yne-26,27-hexafluoro-19-nor-cholecalciferol], in series [3], the “MTD compared with the corresponding parent dihydroxy compound” value is “considerably-greater; also recorded: significantly higher” and the “MTD (mice)” value was 10 µg/kg. For `CC(=O)OC1C/C(=C/C=C2\CCC[C@@]3(C)C2CCC3C2(C/C=C/C(O)(C(F)(F)F)C(F)(F)F)CC2)C[C@@H](OC(C)=O)C1` (stereo partly drawn) [(31), 1,3-Di-O-acetyl-1,25-dihydroxy-20-cyclopropyl-23E-ene-26,27-hexafluoro-19-nor-cholecalciferol], the “MTD (mice)” value in series [3] is 0.3 µg/kg. Turning to `C=C1/C(=C\C=C2/CCC[C@]3(C)C(C(C)C/C=C/C(C)(C)O)=CCC23)CC(OC(C)=O)C[C@@H]1OC(C)=O` (stereo partly drawn) [(9), 1,3-Di-O-acetyl-1,25-dihydroxy-16,23E-diene-cholecalciferol], in series [1], the concentration for half-maximal inhibition (IC50) was found to be 0.013 nM. In series [2], the MTD at 4 days was 3 µg/kg. In the case of `CC(=O)OC1C/C(=C/C=C2\CCC[C@]3(C)C(C4(CCCC(C)(C)O)CC4)=CCC23)C[C@@H](OC(C)=O)C1` (stereo partly drawn) [(37), 1,3-Di-O-acetyl-1α,25-dihydroxy-16-ene-20-cyclopropyl-19-nor-cholecalciferol], in series [3], the “MTD (mice)” value is 10 µg/kg. On the same count and under the same terms, as for `C=C1/C(=C\C=C2/CCC[C@]3(C)C(C(C)CC#CC(C)(C)O)=CCC23)CC(OC(C)=O)C[C@@H]1OC(C)=O` (stereo partly drawn) [(7), 1,3-Di-O-acetyl-1,25-dihydroxy-16-ene-23-yne-cholecalciferol], the figure is 10 µg/kg. For the compound `C=C1/C(=C\C=C2/CCC[C@@]3(C)C2CCC3C2(CCCC(C)(C)O)CC2)C[C@@H](OC(C)=O)C[C@@H]1OC(C)=O` (stereo partly drawn) [Compound (35), 1,3-Di-O-acetyl-1,25-dihydroxy-20-cyclopropyl-cholecalciferol], in series [1], the IC50 was found to be 0.0027 nM. The “Inhibition of specific T cell proliferation and T cell polarization” value in series [4] is reported as “potent”. Further, in series [4] (therapeutic administration), the IFN-g production result was “not” and the IL-17 production entry is given as “markedly inhibited”. The “Prevention of EAU” value in series [5] (Compound A 10 μg/kg orally, listed as Compound A) is on record as “can prevent EAU; also recorded: capable of preventing”. Besides, the “Inhibition of EAU development, therapeutic treatment” value in series [5] (treatment started 7 days after immunization, listed as Compound A) is on record as “could inhibit EAU development; also recorded: treating EAU”. Further, the MTD at 4 days in series [2] was 30 µg/kg. As for `C=C1/C(=C\C=C2/CCC[C@]3(C)C(C(C)CC#CC(OC(C)=O)(C(F)(F)F)C(F)(F)F)=CCC23)CC(OC(C)=O)C[C@@H]1OC(C)=O` (stereo partly drawn) [(13), 1,3,25-Tri-O-acetyl-1,25-dihydroxy-16-ene-23-yne-26,27-hexafluoro-cholecalciferol], in series [3], the “MTD (mice)” value was 3 µg/kg.

`C=C1/C(=C\C=C2/CCC[C@]3(C)C(C(C)C/C=C/[C@@](C)(O)C(F)(F)F)=CCC23)CC(OC(C)=O)C[C@@H]1OC(C)=O` (stereo partly drawn) [(16), 1,3-Di-O-acetyl-1,25-dihydroxy-16,23E-diene-25R,26-trifluoro-cholecalciferol]: the IC50 in series [1] was 0.0513 nM. Also, the maximum tolerated dose (MTD) at 4 days in series [2] is 0.3 µg/kg.

For `CC(=O)OC1C/C(=C/C=C2\CCC[C@]3(C)C(C(C)CC#CC(OC(C)=O)(C(F)(F)F)C(F)(F)F)=CCC23)C[C@@H](OC(C)=O)C1` (stereo partly drawn) [(5), 1,3,25-Tri-O-acetyl-1,25-Dihydroxy-16-ene-23-yne-26,27-hexafluoro-19-nor-cholecalciferol], in series [3], the “MTD compared with the corresponding parent dihydroxy compound” value is “considerably-greater; also recorded: significantly higher” and the “MTD (mice)” value was 3 µg/kg. Regarding `CC(=O)OC1C/C(=C/C=C2\CCC[C@@]3(C)C2CCC3C2(CC#CC(C)(C)O)CC2)C[C@@H](OC(C)=O)C1` (stereo partly drawn) [(24), 1,3-Di-O-acetyl-1,25-dihydroxy-20-cyclopropyl-23-yne-19-nor-cholecalciferol], the IC50 in series [1] came out at 0.802 nM. Further, the MTD at 4 days in series [2] was 100 µg/kg. As to `CC(CC#CC(O)(C(F)(F)F)C(F)(F)F)C1=CCC2C(=CC=C3CC(O)CC(O)C3)CCCC12C` (stereo not drawn) [(3), 1,25-dihydroxy-16-ene-23-yne-26,27-hexafluoro-19-nor-cholecalciferol, reference compound], the “MTD (mice)” value in series [3] was 0.3 µg/kg. On the same count and under the same terms, as for `C=C1/C(=C\C=C2/CCC[C@]3(C)C(C(C)CC#CC(O)(C(F)(F)F)C(F)(F)F)=CCC23)CC(OC(C)=O)C[C@@H]1OC(C)=O` (stereo partly drawn) [(14), 1,3-Di-O-acetyl-1,25-dihydroxy-16-ene-23-yne-26,27-hexafluoro-cholecalciferol], the figure is 10 µg/kg. Turning to `CC(=O)OC1C/C(=C/C=C2\CCC[C@@]3(C)C2CCC3C2(C/C=C\C(O)(C(F)(F)F)C(F)(F)F)CC2)C[C@@H](OC(C)=O)C1` (stereo partly drawn) [(33), 1,3-Di-O-acetyl-1,25-dihydroxy-20-cyclopropyl-23Z-ene-26,27-hexafluoro-19-nor-cholecalciferol], the IC50 in series [1] was found to be 0.099 nM. Also, the MTD at 4 days in series [2] is 10 µg/kg. With `C=C1/C(=C\C=C2/CCC[C@]3(C)[C@@H]([C@H](C)CCCC(C)(C)O)CC[C@@H]23)C[C@@H](O)C[C@@H]1O` [1,25(OH)2D3, calcitriol, reference compound], in series [1], the IC50 worked out at 0.022 nM. In series [4], the “Inhibition of specific T cell proliferation and T cell polarization” value is listed as “potent”. Besides, the “Prevention of EAU” value in series [5] (calcitriol 0.5 μg/kg orally) is given as “can prevent EAU; also recorded: effectively prevents EAU”. For the same compound, the maximal tolerated dose (MTD) at 4 days in series [2] was 1 µg/kg. Take `CC(=O)OC1C/C(=C/C=C2\CCC[C@]3(C)C(C(C)C/C=C\C(O)(C(F)(F)F)C(F)(F)F)=CCC23)C[C@@H](OC(C)=O)C1` (stereo partly drawn) [(2), 1,3-Di-O-acetyl-1,25-dihydroxy-16,23Z-diene-26,27-hexafluoro-19-nor-cholecalciferol]: the “MTD compared with the corresponding parent dihydroxy compound” value in series [3] is recorded as “significantly higher”. Take `CCC(O)(C#CCC(C)C1=CCC2/C(=C/C=C3/CC(OC(C)=O)C[C@H](OC(C)=O)C3)CCC[C@]12C)CC` (stereo partly drawn) [(22), 1,3-Di-O-acetyl-1,25-dihydroxy-16-ene-23-yne-26,27-bishomo-19-nor-cholecalciferol]: in series [3], the “MTD (mice)” value is 100 µg/kg. The same measure, in the same setting: for `C=C1/C(=C\C=C2/CCC[C@@]3(C)C2CCC3C(C)CC#CC(C)(C)O)CC(OC(C)=O)C[C@@H]1OC(C)=O` (stereo partly drawn) [(41), 1,3-Di-O-acetyl-1,25-dihydroxy-23-yne-cholecalciferol] the value was 1 µg/kg.

On to `CC(=O)OC1C/C(=C/C=C2\CCC[C@]3(C)C(C(C)CC#CC(C)(C)O)=CCC23)C[C@@H](OC(C)=O)C1` (stereo partly drawn) [(20), 1,3-Di-O-Acetyl-1,25-dihydroxy-16-ene-23-yne-19-nor-cholecalciferol], for which the 50% inhibitory concentration (IC50) in series [1] amounted to 0.025 nM. Also, in series [2], the MTD at 4 days is 30 µg/kg. As to `CC(=O)OC1C/C(=C/C=C2\CCC[C@]3(C)C(C(C)CCCC(C)(C)O)=CCC23)C[C@@H](OC(C)=O)C1` (stereo partly drawn) [(18), 1,3-Di-O-acetyl-1,25-dihydroxy-16-ene-19-nor-cholecalciferol], the 50% inhibitory concentration (IC50) in series [1] amounted to 0.003 nM. The maximal tolerated dose (MTD) at 4 days in series [2] is 3 µg/kg.

Consider `C=C1/C(=C\C=C2/CCC[C@@]3(C)C2CCC3C2(CC#CC(C)(C)O)CC2)CC(OC(C)=O)C[C@@H]1OC(C)=O` (stereo partly drawn) [(29), 1,3-Di-O-acetyl-1,25-dihydroxy-20-cyclopropyl-23-yne-cholecalciferol], for which the “MTD (mice)” value in series [3] is 30 µg/kg. Same read-out and setting: for `C=C1/C(=C\C=C2/CCC[C@]3(C)C(C4(CCCC(C)(C)O)CC4)=CCC23)CC(OC(C)=O)C[C@@H]1OC(C)=O` (stereo partly drawn) [(39), 1,3-Di-O-acetyl-1α,25-hydroxy-16-ene-20-cyclopropyl-cholecalciferol] the value was 3 µg/kg; for `CC(=O)OC1C/C(=C/C=C2\CCC[C@@]3(C)C2CCC3C2(CC#CC(OC(C)=O)(C(F)(F)F)C(F)(F)F)CC2)C[C@@H](OC(C)=O)C1` (stereo partly drawn) [(26), 1,3,25-Tri-O-acetyl-1,25-dihydroxy-20-cyclopropyl-23-yne-26,27-hexafluoro-19-nor-cholecalciferol], 10 µg/kg.

These data come from US20060258630A1, “Method for the prevention and treatment of uveitis” (BioXell S.p.A., priority 2003, published 2006).
